From patent publication US7361658B2, “2-acylaminothiazole derivative or salt thereof” (Astellas Pharma Inc., priority 2003, dated 2008)

Experiments:
[1] = target: T1, human c-mpl-Ba/F3 cells (Homo sapiens, UniProt P40238); experiment: Human c-mpl-Ba/F3 cell growth test; type: cell-based; settings: for Pot: concentration at which cell growth is accelerated by 30% of the maximum cell growth activity of compound A, 24 h culture; for Emax: maximum cell growth activity, maximum of compound A defined as 100%, read-out: Efficacy
T1 construct: expressed in transfected cells; host or cells: Ba/F3 (murine pro-B cells) expressing human c-mpl
T1 sequence (P40238 26-635): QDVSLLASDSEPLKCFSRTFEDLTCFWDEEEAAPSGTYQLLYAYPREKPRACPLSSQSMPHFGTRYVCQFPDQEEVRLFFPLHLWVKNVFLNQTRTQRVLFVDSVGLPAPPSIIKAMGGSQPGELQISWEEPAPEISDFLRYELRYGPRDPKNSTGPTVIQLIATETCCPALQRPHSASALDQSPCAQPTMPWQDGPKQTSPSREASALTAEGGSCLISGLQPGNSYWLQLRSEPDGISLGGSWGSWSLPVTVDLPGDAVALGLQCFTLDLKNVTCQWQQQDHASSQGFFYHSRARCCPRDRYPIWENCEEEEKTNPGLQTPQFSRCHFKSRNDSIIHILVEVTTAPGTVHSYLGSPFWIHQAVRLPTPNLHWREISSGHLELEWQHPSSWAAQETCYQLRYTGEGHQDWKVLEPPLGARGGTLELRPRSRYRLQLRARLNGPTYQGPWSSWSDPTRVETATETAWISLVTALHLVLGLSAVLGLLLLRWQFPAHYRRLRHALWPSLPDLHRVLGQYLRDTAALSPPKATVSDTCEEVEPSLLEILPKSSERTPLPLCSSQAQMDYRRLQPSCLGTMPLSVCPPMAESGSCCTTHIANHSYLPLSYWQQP
Method: (i) Human c-mpl-Ba/F3 Cell Growth Test
In a 96-well microplate, 2×10^5 cells/ml of human c-mpl-Ba/F3 cells were cultured at 37° C. in 10% fetal bovine serum-containing RPMI1640 medium (100 μl/well) containing each test compound at each concentration. After 24 hours from the start-up of culture, 10 μl/well of WST-1/1-methoxy PMS (cell counting kit, Dojin) was added. Immediately after addition and 2 hours after addition, absorbance of A450/A650 was measured with a microplate reader (Model 3350: Bio-Rad), and an increase in absorbance for 2 hours was defined as a growth activity of each test compound.
pot: Concentration of each test compound at which to accelerate cell growth by 30% of a maximum cell growth activity of compound A (compound A and rhTPO in rhTPO)
Efficacy: Maximum cell growth activity of each test compound when a maximum cell growth activity of compound A (compound A and rhTPO in rhTPO) is defined as 100%.
Compound A refers to a compound in Example 9 of the foregoing Patent Document 10.

[2] = system: Human CD34+ cells; experiment: Test for measuring a function of accelerating formation of megakaryocytic colonies; type: cell-based; settings: megakaryocytic colony formation, 10 to 14 days, MegaCult-C
Method: (ii) Test for Measuring a Function of Accelerating Formation of Megakaryocytic Colonies
Human CD34^+ cells were cultured in a 2-well chamber slide in the presence of a test product at 37° C. for from 10 to 14 days using MegaCult™-C (StemCell Technologies). After dehydration and fixation were conducted according to the attached manual, dying was conducted with an anti-glycoprotein IIb/IIIa antibody. The number of colonies for 1 well was counted by a microscope on condition that a population of 3 or more dyed megakaryocytes was one colony. An EC30 value of each test compound was calculated from a dose curve.

[3] = target: T1, human c-mpl-Ba/F3 cells; experiment: Mouse oral administration test: human c-mpl-Ba/F3 cell growth activity of a plasma after oral administration; type: in vivo; settings: male ICR mouse, plasma 2 h after administration, maximum activity of each test compound = 100%
Method: (iii) Mouse Oral Administration Test
3 mg/kg or 10 mg/kg (100 mg/kg in Comparative Compounds 1 to 3) of a test compound dissolved or suspended in a 0.5% methylcellulose aqueous solution was orally administered to a male ICR mouse. After 2 hours from administration, a blood was sampled from the subabdominal large vein using 1/10-volume 3.8% sodium citrate as an anticoagulant. Centrifugation was performed at 12,000 rpm for 3 minutes. The resulting plasma was heated at 56° C. for 30 minutes, and added to a system of the human c-mpl-Ba/F3 cell growth test described in (i) such that the final concentration of the plasma reached 0.3%, 1% or 3% (10% in Comparative Compounds 1 to 3) to measure a cell growth activity. The cell growth activity (%) of each plasma was measured when the maximum cell growth activity of each test compound was defined as 100%.

CCCCN(C)Cc1sc(NC(=O)c2cnc(N3CCC(C(=O)O)CC3)c(Cl)c2)nc1-c1cc(Cl)cs1 [Example 71, 1-(5-{[5-{[butyl(methyl)amino]methyl}-4-(4-chlorothiophen-2-yl)thiazol-2-yl]carbamoyl}-3-chloro-2-pyridyl)piperidin-4-carboxylic acid]
Pot [1]: 2.0 nM | Emax [1]: 110% | EC30 value [2]: 20 nM | Cell growth activity ([3]; 3 mg/kg p.o., dilution rate 3%): ≧80%

CN(Cc1sc(NC(=O)c2cnc(N3CCC(C(=O)O)CC3)c(Cl)c2)nc1-c1cc(Cl)cs1)C1CCC1 [Example 100, 1-{3-chloro-5-[(4-(4-chlorothiophen-2-yl)-5-{[cyclobutyl(methyl)amino]methyl}thiazol-2-yl)carbamoyl]-2-pyridyl}piperidine-4-carboxylic acid]
Pot [1]: 2.9 nM | Emax [1]: 117% | EC30 value [2]: 34 nM | Cell growth activity ([3]; 3 mg/kg p.o., dilution rate 3%): ≧80%

CC(C)N(C)Cc1sc(NC(=O)c2cnc(N3CCC(C(=O)O)CC3)c(Cl)c2)nc1-c1cc(Cl)cs1 [Example 104, 1-{3-chloro-5-[(4-(4-chlorothiophen-2-yl)-5-{[isopropyl(methyl)amino]methyl}thiazol-2-yl)carbamoyl]-2-pyridyl}piperidine-4-carboxylic acid]
Pot [1]: 3.5 nM | Emax [1]: 105% | EC30 value [2]: 36 nM | Cell growth activity ([3]; 3 mg/kg p.o., dilution rate 1%): 63%

C[C@H]1CCCN1Cc1sc(NC(=O)c2cnc(N3CCC(C(=O)O)CC3)c(Cl)c2)nc1-c1cc(Cl)cs1 [Example 106, 1-{3-chloro-5-[(4-(4-chlorothiophen-2-yl)-5-{[(2S)-2-methylpyrrolidin-1-yl]methyl}thiazol-2-yl)carbamoyl]-2-pyridyl}piperidine-4-carboxylic acid]
Pot [1]: 2.1 nM | Emax [1]: 112% | EC30 value [2]: 23 nM | Cell growth activity ([3]; 3 mg/kg p.o., dilution rate 1%): 63%

CCCCN(C)Cc1sc(NC(=O)c2cnc(N3CCNC(=O)C3)c(Cl)c2)nc1-c1cc(Cl)cs1 [Example 153, N-[5-{[butyl(methyl)amino]methyl}-4-(4-chlorothiophen-2-yl)thiazol-2-yl]-5-chloro-6-(3-oxopiperazin-1-yl)nicotinamide]
Pot [1]: 6.1 nM | Emax [1]: 99% | Cell growth activity ([3]; 10 mg/kg p.o., dilution rate 3%): 29%

C[C@@H]1CCCN1Cc1sc(NC(=O)c2cnc(N3CCC(C(=O)O)CC3)c(F)c2)nc1-c1cc(Cl)cs1 [Example 315, 1-{5-[(4-(4-chlorothiophen-2-yl)-5-{[(2R)-2-methylpyrrolidin-1-yl]methyl}thiazol-2-yl)carbamoyl]-3-fluoro-2-pyridyl}piperidin-4-carboxylic acid]
Pot [1]: 3.2 nM | Emax [1]: 98% | EC30 value [2]: 45 nM
